The results in this text go back to patent publication US11518763B2 (SCOHIA PHARMA, INC., priority 2018, dated 2022).

The assay concerns the target T1, binding between NRF2 and KEAP1 (biotinylated human KEAP1 protein (Kelch domain), TAMRA-labeled NRF2 peptide) (Homo sapiens, UniProt Q14145).
T1 construct: biotinylated human KEAP1 protein (Kelch domain); biotin (biotinylated)
In words: Measurement of activity of inhibiting NRF2 binding (NRF2-KEAP1 TR-FRET). Conditions: inhibition rate relative to control at 100 nM test compound, TR-FRET, 60 min at room temperature; for inhibition at 0.1 µM: read-out: NRF2 binding inhibitory activity (at 100 nM). The protocol:
Test Example 1: Measurement of Activity of Inhibiting NRF2 Binding
The inhibitory activity of test compounds against the binding between NRF2 and KEAP1 was measured by Time Resolved Fluorescence Resonance Energy Transfer (TR-FRET) method. Into a 384 well plate, 2 μL of a compound, 2 μL of 2 nM solution of biotinylated human KEAP1 protein (Kelch domain), 2 μL of 14 nM solution of TAMRA-labeled NRF2 peptide (TAMRA-Abu(4)-VWYTDIRMRDWM-OH), and 2 μL of 2 nM solution of Tb-labeled streptavidin, all solutions diluted with assay buffer (25 mM HEPES, pH7.5, 150 mM NaCl, 0.01% Tween-20), were added. For some wells, the KEAP1 protein was not added to define control wells. The plate was incubated at room temperature for 60 minutes, and time-resolved fluorescence was measured with a plate reader Envision (manufactured by PerkinElmer). The inhibitory activity for each compound at a compound concentration of 100 nM were calculated as a relative activity value by setting the fluorescence intensity of control wells to which the KEAP1 protein was not added as 100% inhibition, and the fluorescence intensity of wells to which no compound was added as 0%.
The measurement results according to the method described above (inhibition rate of signal value relative to control at 100 nM of test compound) are shown in Table 3.
For orientation: In TR-FRET formats the signal depends on donor and acceptor labels being close together.

Each structure is given as a SMILES string.

T1 sequence (Q14145 321-609 limits assumed): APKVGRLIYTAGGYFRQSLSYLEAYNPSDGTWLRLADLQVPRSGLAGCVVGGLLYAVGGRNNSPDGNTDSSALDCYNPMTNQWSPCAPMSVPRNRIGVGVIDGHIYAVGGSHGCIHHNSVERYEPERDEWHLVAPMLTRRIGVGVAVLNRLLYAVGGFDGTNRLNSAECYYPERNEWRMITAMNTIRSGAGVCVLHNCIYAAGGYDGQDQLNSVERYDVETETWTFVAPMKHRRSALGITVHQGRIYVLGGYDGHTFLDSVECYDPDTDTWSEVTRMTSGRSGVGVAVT

Consider `Cc1c2ccc3c1nnn3CCCOCc1ccc(c(C(F)(F)F)c1)C(=O)N1CCc3ccc(cc3C1)C2CC(=O)O` (racemic) [Example 23, [32-Methyl-20-oxo-18-(trifluoromethyl)-14-oxa-8,9,10,21-tetraazahexacyclo[19.5.3.2^16-19.1^3,7.0^6,10.0^24,28]dotriaconta-1(26),3(32),4,6,8,16,18,24,27,30-decaen-2-yl]acetic acid], for which the inhibition at 0.1 µM was 100%. On the same count and under the same terms, the same measure for `Cc1c2ccc3c1nnn3CCCOCc1ccc(c(OC(F)(F)F)c1)C(=O)N1CCc3ccc(cc3C1)C2CC(=O)O` (racemic) [Example 20, [32-Methyl-20-oxo-18-(trifluoromethoxy)-14-oxa-8,9,10,21-tetraazahexacyclo[19.5.3.2^16,19.1^3,7.0^6,10.0^24,28]dotriaconta-1(26),3(32),4,6,8,16,18,24,27,30-decaen-2-yl] acetic acid]: 100%; for `Cc1c2ccc3c1nnn3CCCCOc1ccc(c3c1OC(C)(C)C3)C(=O)N1CCc3ccc(cc3C1)C2CC(=O)O` (racemic) [Example 33, [6,6,33-Trimethyl-2-oxo-7,10-dioxa-1,15,16,17-tetraazaheptacyclo[22.5.3.2^3.9.1^18,22.0^4,8.0^15,19.0^27,31]pentatriaconta-3,8,16,18(33),19,21,24,26,31,34-decaen-23-yl]acetic acid]: 100%.

For the compound `Cc1c2ccc3c1nnn3CC/C=C\CCc1ccc(cc1)C(=O)N1CCc3ccc(cc3C1)C2CC(=O)O` (racemic) [Example 14, [(13Z)-33-Methyl-21-oxo-8,9,10,22-tetraazahexacyclo[20.5.3.2^17,20.1^3,7.0^6,10.0^25,29]tritriaconta-1(27),3(33),4,6,8,13,17,19,25,28,31-undecaen-2-yl]acetic acid], the inhibition at 0.1 µM was 79%.

For the compound `O=C(O)CC1c2ccc3c(c2)CN(CC3)C(=O)c2ccc(cc2)CCCCCn2nnc3cc1ccc32` (racemic) [Example 2, [20-oxo-8,9,10,21-tetraazahexacyclo[19.5.3.2^16,19.1^3,7.0^6,10.0^24,28]dotriaconta-1(26),3(32),4,6,8,16,18,24,27,30-decaen-2-yl]acetic acid], the inhibition at 0.1 µM was determined as 100%. Still for that read-out and setting: the same measure for `Cc1ccc(NC(=O)CC2c3ccc4c(c3)CN(CC4)C(=O)c3ccc(cc3)COCCCn3nnc4c(C)c2ccc43)cn1` (stereo not drawn) [Example 42]: 60%; for `Cc1c2ccc3c1nnn3CCCCCc1cc(Cl)c(c(Cl)c1)C(=O)N1CCc3ccc(cc3C1)C2CC(=O)O` (racemic) [Example 64, [2-[18,30-dichloro-32-methyl-20-oxo-8,9,10,21-tetrazahexacyclo[19.5.3.2^16,19.1^3,7.0^6,10.0^24,28]dotriaconta-1(27),3(32),4,6,8,16(31),17,19(30),24(28),25-decaen-2-yl]acetyl]oxysodium]: 100%; for `Cc1c2ccc3c1nnn3CCCCCc1ccc(cc1)C(=O)N1CCc3ccc(cc3C1)C2CC(=O)Nc1cccnc1` (stereo not drawn) [Example 39]: 97%. On the same count and under the same terms, the figure for `Cc1c2ccc3c1nnn3CCCCOc1ccc(cc1)C(=O)N1CCc3ccc(cc3C1)C2CC(=O)O` (racemic) [Example 30, [32-Methyl-20-oxo-15-oxa-8,9,10,21-tetraazahexacyclo[19.5.3.2^16,19.1^3,7.0^6,10.0^24,28]dotriaconta-1(26),3(32),4,6,8,16,18,24,27,30-decaen-2-yl]acetic acid] is 100%; for `Cc1c2ccc3c1nnn3CCCCOc1ccc(c(F)c1)C(=O)N1CCc3ccc(cc3C1)C2CC(=O)O` (racemic) [Example 31, [18-Fluoro-32-methyl-20-oxo-15-oxa-8,9,10,21-tetraazahexacyclo[19.5.3.2^16,19.1^3,7.0^6,10.0^24,28]dotriaconta-1(26),3(32),4,6,8,16,18,24,27,30-decaen-2-yl]acetic acid] it is 100%. As for `Cc1cc2cc(C)c1C(=O)N1CCc3ccc(cc3C1)C(C(C)(C)C(=O)O)c1ccc3c(nnn3CCCOC2)c1C` (stereo not drawn) [Example 59, 2-methyl-2-[18,30,32-trimethyl-20-oxo-14-oxa-8,9,10,21-tetrazahexacyclo[19.5.3.2^16,19.1^3,7.0^6,10.0^24,28]dotriaconta-1(27),3(32),4,6,8,16(31),17,19(30),24(28),25-decaen-2-yl]propanoic acid], the “NRF2 binding inhibitory activity (at 100 nM)” value worked out at 100%.

For `Cc1c2ccc3c1nnn3CCCCCc1ccc(c3c1CC(C)(C)O3)C(=O)N1CCc3ccc(cc3C1)C2CC(=O)O` (racemic) [Example 8, [6,6,33-Trimethyl-2-oxo-5-oxa-1,15,16,17-tetraazaheptacyclo[22.5.3.2^3,9.1^18,22.0^4,8.0^15,19.0^27,31]pentatriaconta-3,8,16,18(33),19,21,24,26,31,34-decaen-23-yl]acetic acid], the inhibition at 0.1 µM was 100%. Turning to `COc1cc2ccc1C(=O)N1CCc3ccc(cc3C1)C(CC(=O)O)c1ccc3c(nnn3CCCOC2)c1C` (racemic) [Example 22, [18-Methoxy-32-methyl-20-oxo-14-oxa-8,9,10,21-tetraazahexacyclo[19.5.3.2^16,19.1^3,7.0^6,10.0^24,28]dotriaconta-1(26),3(32),4,6,8,16,18,24,27,30-decaen-2-yl]acetic acid], the inhibition at 0.1 µM turned out to be 100%. The same measure, in the same setting: the figure for `Cc1ccc(NC(=O)CC2c3ccc4c(c3)CN(CC4)C(=O)c3ccc(cc3)CCCCCn3nnc4c(C)c2ccc43)cn1` (stereo not drawn) [Example 38, 2-[32-Methyl-20-oxo-8,9,10,21-tetraazahexacyclo[19.5.3.2^16,19.1^3,7.0^6,10.0^24,28]dotriaconta-1(26),3(32),4,6,8,16,18,24,27,30-decaen-2-yl]-N-(6-methylpyridin-3-yl)acetamide] is 79%; for `Cc1c2ccc3c1nnn3CCCOCc1ccc(cc1)C(=O)N1CCc3ccc(cc3C1)C2C(C)(C)C(=O)O` (racemic) [Example 28, 2-Methyl-2-[32-methyl-20-oxo-14-oxa-8,9,10,21-tetraazahexacyclo[19.5.3.2^16,19.1^3,7.0^6,10.0^24,28]dotriaconta-(26),3(32),4,6,8,16,18,24,27,30-decaen-2-yl]propanoic acid] it is 100%; for `Cc1c2ccc3c1nnn3CCCCOc1cc(F)c(c(F)c1)C(=O)N1CCc3ccc(cc3C1)C2CC(=O)O` (racemic) [Example 32, [18,30-Difluoro-32-methyl-20-oxo-15-oxa-8,9,10,21-tetraazahexacyclo[19.5.3.2^16,19.1^3,7.0^6,10.0^24,28]dotriaconta-1(26),3(32),4,6,8,16,18,24,27,30-decaen-2-yl]acetic acid] it is 100%. Same read-out and setting: the figure for `CCOC(=O)CC1c2ccc3c(c2)CN(CC3)C(=O)c2ccc(cc2)COCCCn2nnc3c(C)c1ccc32` (stereo not drawn) [Example 36, Ethyl [32-methyl-20-oxo-14-oxa-8,9,10,21-tetraazahexacyclo[19.5.3.2^16,19.1^3,7.0^6,10.0^24,28]dotriaconta-1(26),3(32),4,6,8,16,18,24,27,30-decaen-2-yl]acetate] is 15%; for `Cc1oc(=O)oc1COC(=O)CC1c2ccc3c(c2)CN(CC3)C(=O)c2ccc(cc2)COCCCn2nnc3c(C)c1ccc32` (stereo not drawn) [Example 34, (5-Methyl-2-oxo-2H-1,3-dioxol-4-yl)methyl [32-methyl-20-oxo-14-oxa-8,9,10,21-tetraazahexacyclo[19.5.3.2^16,19.1^3,7.0^6,10.0^24,28]dotriaconta-1(26),3(32),4,6,8,16,18,24,27,30-decaen-2-yl]acetate] it is 99%. For `Cc1c2ccc3c1nnn3CCCOCc1ccc(cc1)C(=O)N1CCc3ccc(cc3C1)C2C(C)(C)C(=O)O` (stereo not drawn) [Example 56, 2-methyl-2-[32-methyl-20-oxo-14-oxa-8,9,10,21-tetrazahexacyclo[19.5.3.2^16,19.1^3,7.0^6,10.0^24,28]dotriaconta-1(27),3(32),4,6,8,16,18,24(28),25,30-decaen-2-yl]propanoic acid], the “NRF2 binding inhibitory activity (at 100 nM)” value (0.1 µM) was 99%. Still for that read-out and setting: the same measure for `Cc1c2ccc3c1nnn3CCCOCc1cc(Cl)c(c(Cl)c1)C(=O)N1CCc3ccc(cc3C1)C2C(C)(C)C(=O)O` (stereo not drawn) [Example 61, 2-[18,30-dichloro-32-methyl-20-oxo-14-oxa-8,9,10,21-tetrazahexacyclo[19.5.3.2^16,19.1^3,7.0^6,10.0^24,28]dotriaconta-1(27),3(32),4,6,8,16,18,24(28),25,30-decaen-2-yl]-2-methylpropanoic acid]: 99%; for `Cc1c2ccc3c1nnn3CCCCCc1ccc(cc1)C(=O)N1CCc3ccc(cc3C1)C2C(C)(C)C(=O)O` (stereo not drawn) [Example 63, 2-methyl-2-[32-methyl-20-oxo-8,9,10,21-tetrazahexacyclo [19.5.3.2^16,19.1^3,7.0^6,10.0^24,28]dotriaconta-1(27),3(32),4,6,8,16(31),17,19(30),24(28),25-decaen-2-yl]propanoic acid]: 46%.
